The numbers were not newly measured in patent US20220016034A1, “OPIOID RECEPTOR MODULATOR DOSAGE FORMULATIONS” (Allergan Holdings Unlimited Company, priority 2020, published 2022), which cites them from elsewhere.

SMILES strings stand for the structures.

The series relates to stressed and non-stressed mice.

Turning to `CN(C)C(=O)C(CCN1CCC(O)(c2ccc(Cl)cc2)CC1)(c1ccccc1)c1ccccc1` [loperamide], the “gastrointestinal transit and fecal output” value is “completely prevented fecal output in a dose-dependent manner”.
